Experimental data taken from ChEMBL document CHEMBL6078717, “An overview of GPX4-targeting TPDs for cancer therapy” (Bioorg Med Chem, 2025).

How the values were obtained:
[1] = Antiproliferative activity against HEK293T cells assessed as reduction in cell growth; format: toxicity, cell-based, HEK-293T; conditions: human
Calu-1 = assay: Antiproliferative activity against human Calu-1 cells assessed as inhibition of cell growth incubated for 24 hrs by MTT assay; format: functional, cell-based; conditions: Calu-1, 24 h
[2] = PROTAC activity at GPX4/E3 ligase in human HT-1080 cells assessed as degradation of GPX4 protein incubated for 24 hrs by Western blotting analysis; format: cell-based; conditions: HT-1080, 24 h
DU-145 = assay: Antiproliferative activity against human DU-145 cells assessed as cell growth inhibition by SRB assay; format: functional, cell-based
786-0 = assay: Antiproliferative activity against human 786-0 cells assessed as cell growth inhibition measured for 48 hrs by SRB assay; format: functional, cell-based; conditions: 786-0, 48 h
MDA-MB-231 = assay: Antiproliferative activity against human MDA-MB-231 cells assessed as reduction in cell viability after 48 hrs by SRB assay; format: functional, cell-based; conditions: MDA-MB-231, 48 h

IC50 (Calu-1) [nM]	DC50 [2] [nM]	IC50 (DU-145) [nM]	IC50 (786-0) [nM]	IC50 (MDA-MB-231) [nM]	Compound	IC50 [1] [nM]
–	–	–	–	–	COC(=O)c1ccc([C@H]2c3[nH]c4ccccc4c3C[C@H](C(=O)OC)N2C(=O)CCl)cc1	310
860	130	–	–	–	O=C1CCC(N2C(=O)c3cccc(NCCCCN(C(=O)CCl)C(C(=O)NCc4ccccc4)c4cccs4)c3C2=O)C(=O)N1 (centres undefined)	–
2930	210	–	–	–	O=C1CCC(N2C(=O)c3cccc(NCCOCCOCCOCCN(C(=O)CCl)C(C(=O)NCc4ccccc4)c4cccs4)c3C2=O)C(=O)N1 (centres undefined)	–
–	57	92	125	31	Cc1onc(C(=O)N2CCN(C(c3ccc(Cl)cc3)c3ccc(OCCOCCOCC(=O)NCC45CC6CC(CC(C6)C4)C5)cc3)CC2)c1[N+](=O)[O-] (centres undefined)	–
